Earlier results as cited in patent US6462083B1, “Suppository base” (priority 2001, dated 2002).

System: blood flow to the site of administration
Details: laser Doppler imaging; no species, dose or data printed

## CCCCCCCC/C=C\CCCCCCCCCCCC(=O)O [Erucic acid, (Z)-13-Docosenoic acid]
  blood flow to the site of administration: enhance blood flow to the site of administration
